Results: patent US8455522B2, “Benzoxazolone derivatives as aldosterone synthase inhibitors” (Novartis AG, priority 2009, dated 2013)

Key:
CYP11B1 = biological target: T1, CYP11B1 (Homo sapiens, UniProt P15538); assay: Cortisol cell secretion in NCI-H295R cells (CYP11B1 activity); format: cell-based; settings: NCI-H295R, compound at 1 μM, read-out: Cortisol cell secretion (% Inhib. @ 1 μM)
T1 construct: the NCI-H295R cells have Cyp11 B1 (steroid 11 β-hydroxylase); host or cells: NCI-H295R
T1 sequence (P15538 25-503): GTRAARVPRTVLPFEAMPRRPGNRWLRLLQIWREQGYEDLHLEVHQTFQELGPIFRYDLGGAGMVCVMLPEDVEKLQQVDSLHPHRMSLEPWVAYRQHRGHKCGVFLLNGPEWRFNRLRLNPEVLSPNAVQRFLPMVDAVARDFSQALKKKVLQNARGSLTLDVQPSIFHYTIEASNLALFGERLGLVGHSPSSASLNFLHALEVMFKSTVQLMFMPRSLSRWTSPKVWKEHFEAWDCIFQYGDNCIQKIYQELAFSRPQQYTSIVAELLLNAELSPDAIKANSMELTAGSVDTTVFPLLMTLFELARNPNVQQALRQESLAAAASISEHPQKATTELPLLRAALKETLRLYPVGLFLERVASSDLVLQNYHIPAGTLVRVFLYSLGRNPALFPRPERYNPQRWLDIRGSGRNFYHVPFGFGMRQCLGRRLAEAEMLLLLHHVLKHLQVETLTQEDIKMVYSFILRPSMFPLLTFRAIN
Description: The in vitro inhibitory activities for CYP1B1 can be determined by the following assay.
The cell line NCI-H295R was originally isolated from an adrenocortical carcinoma and has been characterized in the literature through the stimulable secretion of steroid hormones and the presence of the enzymes essential for steroidogenesis. Thus, the NCI-H295R cells have Cyp11 B1 (steroid 11 β-hydroxylase). The cells show the physiological property of zonally undifferentiated human foetal adrenocortical cells which, however, have the capacity to produce the steroid hormones which are formed in the three, phenotypically distinguishable zones in the adult adrenal cortex.
The NCI-H295R cells (American Type Culture Collection, ATCC, Rockville, Md., USA) are grown in Dulbeoco's Modified Eagle'Ham F-12 Medium (DME/F12), which has been supplemented with Ulroser SF Serum (Soprachem, Geigy-Saint-Christophe, France), insulin, transferrin, selenite (I-T-S, Becton Dickinson Biosiences, Franklin lakes. NJ, USA) and antibiotics in 75 cm^2 cell culture vessels at 37° C. and in a 95% air-5% carbon dioxide atmosphere. The cells are subsequently transferred for colony formation into a 24-well incubation vessel. They are cultivated there in DME/F12 medium, which is now supplemented with 0.1% bovine serum instead of Ultroser SF for 24 hours. The experiment is initiated by cultivating the cells in DME/F12 medium which is supplemented with 0.1% bovine serum albumin and test compound, in the presence or absence of cell stimulants, for 72 hours. The test substance is added in a concentration range from 0.2 nanomolar to […]. Cell stimulants which can be used are angiotensin II (1 D or 100 nanomolar), potassium ions (16 millimolar), forskolin (10 micromolar) or a combination of two stimulants.
The excretion of aldosterone, cortisol, corticosterone and estradiol/estrone into the culture medium can be detected and quantified by commercially available, specific monoclonal antibodies in radioimmunoassays in accordance with the manufacturer's instructions.
(§1) Inhibition of the release of certain steroids can be used as a measure of the respective enzyme inhibition by the added test compounds. The dose-dependent inhibition of enzymic activity by a compound is calculated by means of an inhibition plot which is characterized by an IC50.
The inhibition activity of cortisol production (CYP11B1 activity) can also be expressed in percentage inhibition (% inhibition) at a given concentration (e.g. % inhibition at 1 μM), which is the cortisol level when cell is treated with the given concentration of a compound of the invention (e.g. concentration of 1 μM) versus the cortisol excretion when cell is free of the compound of the invention. % inhibition cortisol production=[(Y′−X′)/Y′]×100 wherein X′ is the level of cortisol when the cell is treated with a compound of Formula I; and Y′ is the level of cortisol when the cell is free of compound of Formula I.

aldosterone synthase = biological target: T2, aldosterone synthase (Homo sapiens, UniProt P19099); assay: Aldosterone cell secretion in NCI-H295R cells (aldosterone synthase inhibition, SPA); format: cell-based; settings: human adrenocortical carcinoma NCI-H295R cells, 1 μM Ang II, 24 hr
T2 construct: host or cells: NCI-H295R
T2 sequence (P19099 25-503): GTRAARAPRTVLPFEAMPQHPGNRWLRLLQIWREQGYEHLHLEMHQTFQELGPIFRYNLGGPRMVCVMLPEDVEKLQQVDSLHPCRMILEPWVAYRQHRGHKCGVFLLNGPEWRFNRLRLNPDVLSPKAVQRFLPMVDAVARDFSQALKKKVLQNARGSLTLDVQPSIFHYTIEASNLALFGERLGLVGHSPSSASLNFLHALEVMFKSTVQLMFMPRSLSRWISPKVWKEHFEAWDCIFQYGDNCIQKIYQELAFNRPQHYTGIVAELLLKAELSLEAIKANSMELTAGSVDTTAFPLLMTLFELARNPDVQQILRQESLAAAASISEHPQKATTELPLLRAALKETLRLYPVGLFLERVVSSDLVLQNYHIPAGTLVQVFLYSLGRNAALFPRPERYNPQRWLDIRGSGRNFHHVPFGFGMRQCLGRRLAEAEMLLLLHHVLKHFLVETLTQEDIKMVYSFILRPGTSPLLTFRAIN
Description: In particular, the aldosterone synthase inhibitory activities in vitro can be determined by the following assay.
Human adrenocortical carcinoma NCI-H295R cell line was obtained from American Type Culture Collection (Manassas, Va.). Insulin/transferrin/selenium (ITS)-A supplement (100×). DMEM/F-12, antibiotic/antimycotic (100×), and fetal bovine serum (FBS) were purchased from Invitrogen (Carlsbad, Calif.). Anti-mouse PVT scintillation proximity assay (SPA) beads and NBS 96-well plates were obtained from GE Health Sciences (Piscataway, N.J.) and Corning (Acton, Mass.), respectively. Solid black 96-well flat bottom plates were purchased from Costar (Corning, N.Y.). Aldosterone and angiotensin (Ang II) were purchased from Sigma (St. Louis, Mo.). D-[1,2,6,7-^3H(N)]aldosterone was acquired from PerkinElmer (Boston, Mass.). Nu-serum was a product of BD Biosciences (Franklin Lakes, N.J.). The NADPH regenerating system, dibenzylfluorescein (DBF), and human aromatase Supersomes® were obtained from Gentest (Woburn, Mass.).
For in vitro measurement of aldosterone activity, human adrenocortical carcinoma NCI-H295R cells are seeded in NBS 96-well plates at a density of 25,000 cells/well in 100 μl of a growth medium containing DMEM/F12 supplemented with 10% FCS, 2.5% Nu-serum, 1 μg ITS/ml, and 1× antibiotic/antimycotic. The medium is changed after culturing for 3 days at 37° C. under an atmosphere of 5% CO2/95% air. On the following day, cells are rinsed with 100 μl of phosphate-buffered saline (PBS) and incubated with 100 μl of treatment medium containing 1 μM Ang II and a compound at different concentrations in quadruplicate wells at 37° C. for 24 hr. At the end of incubation, 50 μl of medium is withdrawn from each well for measurement of aldosterone production by an SPA using mouse anti-aldosterone monoclonal antibodies.
Measurement of aldosterone activity can also be performed using a 96-well plate format. Each test sample is incubated with 0.02 μCi of D-[1,2,6,7-^3H(N)]aldosterone and 0.3 μg of anti-aldosterone antibody in PBS containing 0.1% Triton X-100, 0.1% bovine serum albumin, and 12% glycerol in a total volume of 200 μl at room temperature for 1 hr. Anti-mouse PVT SPA beads (50 μl) are then added to each well and incubated overnight at room temperature prior to counting in a Microbeta plate counter. The amount of aldosterone in each sample is calculated by comparing with a standard curve generated using known quantities of the hormone.
as §1
The IC50 values for active test compounds are ascertained by a simple linear regression analysis in order to construct inhibition plots without data weighting. The inhibition plot is calculated by fitting a 4-parameter logistic function to the raw data points using the least squares method. The equation of the 4-parameter logistic function is calculated as follows: Y=(d−a)/((1+(x/c)b))+a, where: a=minimum data level, b=gradient, I […], d=maximum data level, x=inhibitor concentration.
The inhibition activity of aldosterone production can also be expressed in percentage inhibition (% inhibition) at a given concentration (e.g. % inhibition at 1 μM), which is the aldosterone level when the cell is treated with the given concentration of a compound of this invention (e.g. concentration of 1 μM) versus the aldosterone excretion when cell is free of the compound of the invention: % inhibition aldosterone production=[(Y−X)/Y]×100 wherein X is the level of aldosterone when the cell is treated with a compound of Formula I; and Y is the level of aldosterone when the cell is free of compound of Formula I.

Row | inhibition at 1 µM (CYP11B1) | IC50 (aldosterone synthase) | SMILES
1 | 57% | 34 nM | Cn1c(=O)oc2ccc(-c3cncc(CCO)c3)cc21 [Example 18, 5-(5-(2-hydroxyethyl)pyridin-3-yl)-3-methylbenzo[d]oxazol-2(3H)-one]
2 | 96% | 17 nM | CCN(Cc1ccccc1)Cc1cncc(-c2ccc3oc(=O)n(C)c3c2)c1 [Example 10, 5-{5-[(Benzyl-ethyl-amino)-methyl]-pyridin-3-yl}-3-methyl-3H-benzooxazol-2-one]
3 | 13% | 144 nM | Cn1c(=O)oc2ccc(-c3cncc(F)c3CO)cc21 [Example 36, 5-(5-fluoro-4-(hydroxymethyl)pyridin-3-yl)-3-methylbenzo[d]oxazol-2(3H)-one]
4 | 83% | 21 nM | Cn1c(=O)oc2ccc(-c3cncc(CO)c3)cc21 [Example 15, 5-(5-(hydroxymethyl)pyridin-3-yl)-3-methylbenzo[d]oxazol-2(3H)-one]
